This is an account of results in article PMC8948292, “Combining PEGylated mito-atovaquone with MCT and Krebs cycle redox inhibitors as a potential strategy to abrogate tumor cell proliferation” (Scientific Reports, 2022).

For assay [1], the system named is MiaPaCa-2 cells. Put plainly: Basal extracellular acidification rate (ECAR) in intact cells. In kind it is cell-based, human. To be noted: 24 h treatment. As for the experimental part:
(§1) Mitochondrial oxygen consumption was measured using the Seahorse XF-96 Extracellular Flux Analyzer (Agilent, North Billerica, MA)[3],[33],[67],[68]. To determine the intact cell mitochondrial function of MiaPaCa-2 cells in response to Mito-PEG-ATO analogs, we used the bioenergetic function assay previously described[2],[3]. […] From these measurements, indices of mitochondrial function were determined as previously described[2],[3]. For mitochondrial complex activities assays, after cells were treated with Mito-PEG-ATO analogs for 24 h, the OCR-based assessment of mitochondrial complex activities was carried out on acutely permeabilized cells in the presence of different mitochondrial substrates, i.e., pyruvate/malate for complex I and duroquinol for complex III[3],[32],[34],[69]. Rotenone, malonate, and antimycin A (Sigma-Aldrich, St. Louis, MO) were used as specific inhibitors of mitochondrial complexes I, II, and III, respectively. Briefly, cells that were intact after treatments were immediately permeabilized using the Seahorse XF Plasma Membrane Permeabilizer (Agilent). The mitochondrial complex I-induced OCR was assayed in mannitol and sucrose buffer[69] containing 10 mM pyruvate and 1.5 mM malate (substrates for complex I) and 10 mM malonate (which inhibits complex II activities). […] The IC50 values were determined as previously reported. […]

Assay [2] has as its system mitochondrial respiration (OCR) in intact U87MG cells. Put plainly: Intact cell mitochondrial respiration (basal OCR), Seahorse XF-96. The assay is classed as cell-based, human. The conditions noted are these: 24 h treatment. As for the experimental part:
Mitochondrial oxygen consumption was measured using the Seahorse XF-96 Extracellular Flux Analyzer (Agilent, North Billerica, MA)[3],[33],[67],[68]. To determine the intact cell mitochondrial function of MiaPaCa-2 cells in response to Mito-PEG-ATO analogs, we used the bioenergetic function assay previously described[2],[3]. […] From these measurements, indices of mitochondrial function were determined as previously described[2],[3]. For mitochondrial complex activities assays, after cells were treated with Mito-PEG-ATO analogs for 24 h, the OCR-based assessment of mitochondrial complex activities was carried out on acutely permeabilized cells in the presence of different mitochondrial substrates, i.e., pyruvate/malate for complex I and duroquinol for complex III[3],[32],[34],[69]. Rotenone, malonate, and antimycin A (Sigma-Aldrich, St. Louis, MO) were used as specific inhibitors of mitochondrial complexes I, II, and III, respectively. […] The IC50 values were determined as previously reported.
Figure S8. […] (b) After eight baseline OCR measurements, the response to mitochondrial modulators (oligomycin, dinitrophenol, and rotenone/antimycin A as described in the Methods section) were recorded. The last three stable baseline OCR reading before oligomycin injection was plotted against the concentration of Mito-PEG4-ATO (red open box). […]

Another assay concerns U87MG cells. Put plainly: Basal extracellular acidification rate (ECAR) in intact cells. The assay is classed as cell-based, human.
The subject of assay [3] is mitochondrial respiration (OCR) in intact MiaPaCa-2 cells. Put plainly: Intact cell mitochondrial respiration (basal OCR), Seahorse XF-96. In kind it is cell-based, human. Put shortly: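 MiaPaCa-2 cells were treated 24 h with Mito-PEG-ATO analogs, and OCR was read on a Seahorse XF-96; basal respiration was taken in intact cells. For complex I, permeabilized cells received 10 mM pyruvate, 1.5 mM malate and 10 mM malonate; for complex III, 0.5 mM duroquinol, 1 µM rotenone and 10 mM malonate, both in mannitol/sucrose buffer. IC50 values were derived from the OCR data.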

Assay [4] has as its target T1, mitochondrial complex III (U87MG cells) (Homo sapiens, UniProt P00156).
T1 construct: endogenous in cells; host or cells: U87MG (ATCC HTB-14)
Put plainly: Complex III-dependent oxygen consumption, Seahorse XF-96. In kind it is cell-based. As for the experimental part:
as §1

Assay [5] concerns MiaPaCa-2 cells. Put plainly: Cell proliferation (cell confluence), IncuCyte Live-Cell Analysis System. In kind it is cell-based, human. Put shortly:
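MiaPaCa-2 cells in DMEM with 10% FBS, plated at 1,000 cells/well in triplicate and adhered overnight, then treated with Mito-PEG-ATO analogs. Confluence imaged label-free over several days, increase in percent confluence serving as proliferation surrogate.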

The target in assay [6] is mitochondrial complex III (MiaPaCa-2 cells) (Homo sapiens, UniProt P00156). Put plainly: Complex III-dependent oxygen consumption in permeabilized cells, Seahorse XF-96. The assay is classed as cell-based. As for the experimental part: Mitochondrial oxygen consumption was measured using the Seahorse XF-96 Extracellular Flux Analyzer (Agilent, North Billerica, MA)[3],[33],[67],[68]. To determine the intact cell mitochondrial function of MiaPaCa-2 cells in response to Mito-PEG-ATO analogs, we used the bioenergetic function assay previously described[2],[3]. […] From these measurements, indices of mitochondrial function were determined as previously described[2],[3]. For mitochondrial complex activities assays, after cells were treated with Mito-PEG-ATO analogs for 24 h, the OCR-based assessment of mitochondrial complex activities was carried out on acutely permeabilized cells in the presence of different mitochondrial substrates, i.e., pyruvate/malate for complex I and duroquinol for complex III[3],[32],[34],[69]. Rotenone, malonate, and antimycin A (Sigma-Aldrich, St. Louis, MO) were used as specific inhibitors of mitochondrial complexes I, II, and III, respectively. Briefly, cells that were intact after treatments were immediately permeabilized using the Seahorse XF Plasma Membrane Permeabilizer (Agilent). The mitochondrial complex I-induced OCR was assayed in mannitol and sucrose buffer[69] containing 10 mM pyruvate and 1.5 mM malate (substrates for complex I) and 10 mM malonate (which inhibits complex II activities). The mitochondrial complex III-driven OCR was assayed in a mannitol and sucrose buffer containing 0.5 mM duroquinol (substrate for complex III) as well as 1 µM rotenone and 10 mM malonate (which inhibit both complex I and II activities). The IC50 values were determined as previously reported.

For assay [7], the system named is mitochondrial complex I (U87MG cells). Put plainly: Complex I-dependent oxygen consumption, Seahorse XF-96. The assay is classed as cell-based, human. As for the experimental part: as §1
Assay [8] has as its target mitochondrial complex I (MiaPaCa-2 cells) (Homo sapiens, UniProt O75251+O75306+P03886). Put plainly: Complex I-dependent oxygen consumption in permeabilized cells, Seahorse XF-96. The assay is classed as cell-based. To be noted: 24 h, with Mito-PEG5-ATO. On the procedure: Mitochondrial oxygen consumption was measured using the Seahorse XF-96 Extracellular Flux Analyzer (Agilent, North Billerica, MA)[3],[33],[67],[68]. To determine the intact cell mitochondrial function of MiaPaCa-2 cells in response to Mito-PEG-ATO analogs, we used the bioenergetic function assay previously described[2],[3]. […] From these measurements, indices of mitochondrial function were determined as previously described[2],[3]. For mitochondrial complex activities assays, after cells were treated with Mito-PEG-ATO analogs for 24 h, the OCR-based assessment of mitochondrial complex activities was carried out on acutely permeabilized cells in the presence of different mitochondrial substrates, i.e., pyruvate/malate for complex I and duroquinol for complex III[3],[32],[34],[69]. Rotenone, malonate, and antimycin A (Sigma-Aldrich, St. Louis, MO) were used as specific inhibitors of mitochondrial complexes I, II, and III, respectively. Briefly, cells that were intact after treatments were immediately permeabilized using the Seahorse XF Plasma Membrane Permeabilizer (Agilent). The mitochondrial complex I-induced OCR was assayed in mannitol and sucrose buffer[69] containing 10 mM pyruvate and 1.5 mM malate (substrates for complex I) and 10 mM malonate (which inhibits complex II activities). […] The IC50 values were determined as previously reported.

Like-named read-outs stand apart in the source and are kept apart here.

Chain of mitochondrial complex III (MiaPaCa-2 cells) (P00156 whole entry): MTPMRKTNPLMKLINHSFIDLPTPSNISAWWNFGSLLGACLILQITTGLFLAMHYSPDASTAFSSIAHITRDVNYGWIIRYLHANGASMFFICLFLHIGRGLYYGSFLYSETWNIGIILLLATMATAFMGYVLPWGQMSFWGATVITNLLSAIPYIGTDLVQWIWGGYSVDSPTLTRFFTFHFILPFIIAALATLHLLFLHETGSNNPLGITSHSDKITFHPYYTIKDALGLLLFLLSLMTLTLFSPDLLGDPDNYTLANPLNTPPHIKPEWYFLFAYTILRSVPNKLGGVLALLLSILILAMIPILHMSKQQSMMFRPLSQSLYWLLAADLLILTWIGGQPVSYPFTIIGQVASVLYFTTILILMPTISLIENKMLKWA
Chain of mitochondrial complex III (MiaPaCa-2 cells) (P47985 whole entry partner): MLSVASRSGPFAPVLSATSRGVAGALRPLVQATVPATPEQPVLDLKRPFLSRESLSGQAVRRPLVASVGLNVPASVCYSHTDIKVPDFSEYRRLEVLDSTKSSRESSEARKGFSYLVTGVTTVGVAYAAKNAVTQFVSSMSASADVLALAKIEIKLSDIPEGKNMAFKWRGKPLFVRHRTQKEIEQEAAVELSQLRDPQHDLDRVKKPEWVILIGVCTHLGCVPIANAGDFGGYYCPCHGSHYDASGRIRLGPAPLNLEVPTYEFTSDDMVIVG
Chain of mitochondrial complex I (MiaPaCa-2 cells) (O75306 34-463): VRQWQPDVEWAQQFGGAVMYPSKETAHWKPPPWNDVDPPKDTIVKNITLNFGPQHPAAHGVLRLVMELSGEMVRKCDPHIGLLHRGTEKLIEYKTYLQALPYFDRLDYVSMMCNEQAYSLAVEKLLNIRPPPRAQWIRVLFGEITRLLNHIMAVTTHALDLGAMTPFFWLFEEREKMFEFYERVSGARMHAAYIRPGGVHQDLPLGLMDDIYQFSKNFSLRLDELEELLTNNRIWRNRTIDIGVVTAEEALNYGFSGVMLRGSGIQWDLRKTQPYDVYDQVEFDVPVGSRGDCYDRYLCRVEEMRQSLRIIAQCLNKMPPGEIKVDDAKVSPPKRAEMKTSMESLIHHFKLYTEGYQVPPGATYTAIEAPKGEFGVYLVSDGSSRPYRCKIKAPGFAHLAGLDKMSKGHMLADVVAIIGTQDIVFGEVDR
Chain of mitochondrial complex I (MiaPaCa-2 cells) (O75251 39-213): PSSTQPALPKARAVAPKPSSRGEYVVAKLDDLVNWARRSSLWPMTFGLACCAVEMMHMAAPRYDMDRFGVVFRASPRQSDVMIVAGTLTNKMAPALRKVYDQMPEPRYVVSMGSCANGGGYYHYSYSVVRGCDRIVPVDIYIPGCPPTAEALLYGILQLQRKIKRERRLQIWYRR
Chain of mitochondrial complex I (MiaPaCa-2 cells) (P03886 whole entry): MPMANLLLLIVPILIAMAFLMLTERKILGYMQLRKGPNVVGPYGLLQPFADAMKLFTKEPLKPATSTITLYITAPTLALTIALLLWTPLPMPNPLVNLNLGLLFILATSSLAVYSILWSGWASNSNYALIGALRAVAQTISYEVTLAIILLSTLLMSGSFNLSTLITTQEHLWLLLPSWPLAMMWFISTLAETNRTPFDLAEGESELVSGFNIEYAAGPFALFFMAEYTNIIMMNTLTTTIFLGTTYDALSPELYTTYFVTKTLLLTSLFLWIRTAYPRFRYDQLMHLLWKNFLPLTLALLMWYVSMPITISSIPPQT
T1 sequence (P00156 whole entry): as the sequence (P00156 whole entry) above
T1 sequence (P47985 whole entry partner): as the sequence (P47985 whole entry partner) above

For the molecule `O=C1C(OCCOCCOCCOCC[P+](c2ccccc2)(c2ccccc2)c2ccccc2)=C([C@H]2CC[C@H](c3ccc(Cl)cc3)CC2)C(=O)c2ccccc21.[Br-]` [Mito-PEG4-ATO, [2-(2-(2-(2-((3-(trans-4-(4-chlorophenyl)cyclohexyl)-1,4-dioxo-1,4-dihydronaphthalen-2-yl)oxy)ethoxy)ethoxy)ethoxy)ethyl]triphenylphosphonium bromide], the ECAR entry in the assay on MiaPaCa-2 cells [1] and in the assay with U87MG cells was “stimulated ECAR” each time. Also, the “OCR in intact cells” value in assay [2] is reported as “suppressed”. The “OCR (pmol/min/µg protein)” value in assay [3] (0.003 µM, 24 h treatment, intact MiaPaCa-2 cells, baseline OCR, mean, n=4) worked out at 20.44 pmol/min/µg protein. The “OCR (basal, intact cell mitochondrial respiration)” value is recorded as 17.79 pmol/min/µg protein in assay [3] (0.01 µM, 24 h treatment, intact MiaPaCa-2 cells, mean, n=4); 17.72 pmol/min/µg protein in assay [3] (0.03 µM, 24 h treatment, intact MiaPaCa-2 cells, mean, n=4); 16.82 pmol/min/µg protein in [3] (0.05 µM, 24 h treatment, intact MiaPaCa-2 cells, mean, n=4); 13.38 pmol/min/µg protein in assay [3] (0.1 µM, 24 h treatment, intact MiaPaCa-2 cells, mean, n=4); 9.15 pmol/min/µg protein in [3] (0.2 µM, 24 h treatment, intact MiaPaCa-2 cells, mean, n=4); 6.10 pmol/min/µg protein in assay [3] (0.3 µM, 24 h treatment, intact MiaPaCa-2 cells, mean, n=4). Also, the “OCR (basal, intact cell mitochondrial respiration)” value in [3] (0.5 µM, 24 h treatment, intact MiaPaCa-2 cells, mean, n=4) stood at 3.29 pmol/min/µg protein; in [3] (1 µM, 24 h treatment, intact MiaPaCa-2 cells, mean, n=4) it was 1.41 pmol/min/µg protein; in assay [3] (3 µM, 24 h treatment, intact MiaPaCa-2 cells, mean, n=4) it was 0.43 pmol/min/µg protein; in [3] (10 µM, 24 h treatment, intact MiaPaCa-2 cells, mean, n=4), 0.42 pmol/min/µg protein. In addition, the IC50 came to 260 nM in [3] (Homo sapiens, MIA PaCa-2, 24 h, read-out: IC50, inhibition of basal OCR in intact cells); 140 nM with MiaPaCa-2 cells [5] (Homo sapiens, MIA PaCa-2, read-out: IC50, inhibition of cell proliferation); 1700 nM in [6] (MiaPaCa-2 cells, 24 h treatment, antimycin A-inhibitable OCR, read-out: IC50, complex III-induced oxygen consumption (Complex III activity)). In addition, the “Complex III-induced oxygen consumption” value in assay [4] is “inhibited”. In addition, the “Cell confluence (% of control)” value with MiaPaCa-2 cells [5] (MiaPaCa-2 cells, 0.005 µM, control ~90% confluence) is 100.53 % of control; in the assay with MiaPaCa-2 cells [5] (MiaPaCa-2 cells, 0.02 µM, control ~90% confluence), 101.08 % of control; with MiaPaCa-2 cells [5] (MiaPaCa-2 cells, 0.05 µM, control ~90% confluence), 100.72 % of control; with MiaPaCa-2 cells [5] (MiaPaCa-2 cells, 0.08 µM, control ~90% confluence) it was 98.94 % of control; in the assay with MiaPaCa-2 cells [5] (MiaPaCa-2 cells, 0.16 µM, control ~90% confluence), 29.68 % of control; with MiaPaCa-2 cells [5] (MiaPaCa-2 cells, 0.32 µM, control ~90% confluence), 3.32 % of control. Also, the “Cell confluence (% of control)” value is recorded as 3.11 % of control with MiaPaCa-2 cells [5] (MiaPaCa-2 cells, 0.48 µM, control ~90% confluence); 3.18 % of control in the assay on MiaPaCa-2 cells [5] (MiaPaCa-2 cells, 0.8 µM, control ~90% confluence); 2.81 % of control with MiaPaCa-2 cells [5] (MiaPaCa-2 cells, 1.6 µM, control ~90% confluence); 2.52 % of control with MiaPaCa-2 cells [5] (MiaPaCa-2 cells, 4.8 µM, control ~90% confluence). For the same molecule, the “Complex III activity (OCR, % of control)” value in assay [6] (0.02 µM) is 98.8 % of control; in [6] (0.05 µM), 96.0 % of control; in [6] (0.08 µM) it was 99.9 % of control; in assay [6] (0.16 µM) it was 96.5 % of control; in assay [6] (0.32 µM), 90.1 % of control; in [6] (0.5 µM), 92.4 % of control. Further, the “Complex III activity (OCR, % of control)” value in assay [6] (0.8 µM) is recorded as 76.5 % of control; in [6] (1.6 µM) it was 51.9 % of control; in assay [6] (5 µM), 24.8 % of control. Moreover, the “Complex I-induced oxygen consumption” value in assay [7] is on record as “inhibited”.

Regarding `Cc1cccc(COc2ccccc2CN(CC[C@H](N)C(=O)O)Cc2ccccc2OCc2cccc(C)c2)c1` [V-9302, reference compound], in [8], the “Effect on the decrease in complex I-induced oxygen consumption induced by Mito-PEG5-ATO” value is “Neither AZD-3965 nor V-9302 significantly affected”. Also, in the assay with MiaPaCa-2 cells [5] (MiaPaCa-2 cells, combined with Mito-PEG5-ATO), the “Inhibition of cell proliferation in combination with Mito-PEG5-ATO (combination index)” value is “synergistically inhibited”. Besides, the “% changes of IC50 with vs without Mito-PEG5-ATO” value in the assay on MiaPaCa-2 cells [5] (MiaPaCa-2 cells, heat map Fig. 7d) was found to be 71.1%. Also, the IC50 in the assay with MiaPaCa-2 cells [5] (MiaPaCa-2 cells, inhibitor alone, control ~90% confluence, read-out: IC50 (cell proliferation) without Mito-PEG5-ATO) was found to be 8600 nM. In assay [6] (MiaPaCa-2 cells, with Mito-PEG5-ATO), the “Effect on the decrease in complex III-induced oxygen consumption induced by Mito-PEG5-ATO” value is “Neither AZD-3965 nor V-9302 significantly affected”.
